These results are taken from ChEMBL document CHEMBL3853262 (Medchemcomm, 2016).

Structures are written as SMILES.

What is called EC50 is the concentration giving half of the maximal effect. Low readings indicate a more potent agent, high ones a less potent agent.

Assay type in all cases: functional, cell-based
In assay [1] the test system is BJ. The assay can be described thus: Proapoptotic activity in human BJ cells by annexin V-FITC/propidium iodide staining-based capillary cytometric method.
Assay [2] deals with ASPC1. Briefly: Proapoptotic activity in human AsPC1 cells by annexin V-FITC/propidium iodide staining-based capillary cytometric method.
For assay [3], the system named is BXPC-3. Briefly: Proapoptotic activity in human BxPC3 cells by annexin V-FITC/propidium iodide staining-based capillary cytometric method.
Assay [4] concerns NTERA-2-cl-D1. The assay can be described thus: Proapoptotic activity in human NT2/D1 cells by annexin V-FITC/propidium iodide staining-based capillary cytometric method.

With `Nc1nc(-c2cccc(NC(=O)c3cc4cc(Cl)ccc4[nH]3)c2)c[nH]1`, the EC50 in assay [1] stood at 20 µM; in assay [2], 19 µM; in assay [3] it was 25 µM; in assay [4], 16 µM.
